The assay addresses Acetylcholinesterase (Homo sapiens, UniProt P22303). The assay is described as follows: Concentration required to inhibit acetylcholinesterase isolated from human erythrocytes.

Among the data in ChEMBL document CHEMBL1151555, “Total synthesis of an optically active 8-carba-physostigmine analog: a potent acetylcholinesterase inhibitor” (Bioorg Med Chem Lett, 1991) are IC50 values, retold here.

Acetylcholinesterase, sequence (P22303 whole entry): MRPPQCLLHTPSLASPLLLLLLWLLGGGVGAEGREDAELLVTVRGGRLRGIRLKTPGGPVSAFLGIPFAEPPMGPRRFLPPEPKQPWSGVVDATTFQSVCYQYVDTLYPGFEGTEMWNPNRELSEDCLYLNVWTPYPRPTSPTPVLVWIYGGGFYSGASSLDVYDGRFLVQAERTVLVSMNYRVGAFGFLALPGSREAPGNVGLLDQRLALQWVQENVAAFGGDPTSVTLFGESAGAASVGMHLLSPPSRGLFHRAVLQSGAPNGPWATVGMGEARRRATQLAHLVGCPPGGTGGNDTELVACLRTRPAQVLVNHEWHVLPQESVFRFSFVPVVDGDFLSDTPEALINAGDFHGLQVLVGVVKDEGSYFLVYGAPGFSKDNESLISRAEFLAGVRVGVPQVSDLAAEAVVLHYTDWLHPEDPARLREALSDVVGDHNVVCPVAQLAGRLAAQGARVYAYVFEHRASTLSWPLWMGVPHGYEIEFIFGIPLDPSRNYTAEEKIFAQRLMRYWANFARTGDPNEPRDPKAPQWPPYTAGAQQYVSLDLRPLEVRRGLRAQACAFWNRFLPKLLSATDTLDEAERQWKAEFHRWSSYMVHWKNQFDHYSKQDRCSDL

As for `CCCCCCNC(=O)Oc1ccc2c(c1)[C@@]1(C)CCN(CC)[C@H]1C2`, half-maximal inhibition (IC50) was put at 233 nM.
On to `CCCCCCNC(=O)Oc1ccc2c(c1)[C@]1(C)CCN(CC)[C@@H]1C2`, for which the IC50 was 20 nM.
